Assay results as given in ChEMBL document CHEMBL4402592, “Targeting Endoplasmic Reticulum α-Glucosidase I with a Single-Dose Iminosugar Treatment Protects against Lethal Influenza and Dengue Virus Infections” (J Med Chem, 2020).
Active and inactive are the calls of the source. No cut-off for these calls is given here.

What was measured:
[1] = test system: dengue virus type 2; test: Antiviral activity against Dengue virus 2 S221 infected in DENV antibody dependent enhancement AG129 mouse model assessed as animal survival at 375 mg/kg, po administered via gavage as two doses at 36 and 52 hrs post infection (reference value: 4%); format: functional
[2] = test system: Mus musculus; test: In vivo inhibition of ERGlu1 in BALB/c mouse assessed as increase in mono-glucosylated FOS level in spleen at 100 to 1000 mg/kg, po administered via gavage at 8 hrs post-infection and measured at 8 hrs post-dose by NP-HPLC analysis; format: functional, organism-based
[3] = test system: Influenza A virus; test: Antiviral activity against Influenza A virus (A/Texas/36/1991(H1N1)) infected in BALB/c mouse assessed as median death time at 500 mg/kg, po administered via gavage as three dosed at 8, 32 and 56 hrs post infection (reference value: 8 days); format: functional
[4] = test system: dengue virus type 2; test: Antiviral activity against Dengue virus 2 S221 infected in DENV antibody dependent enhancement AG129 mouse model assessed as animal survival at 750 mg/kg, po administered via gavage as two doses at 16 and 32 hrs post infection (reference value: 4%); format: functional
[5] = test system: Influenza A virus; test: Antiviral activity against Influenza A virus (A/Texas/36/1991(H1N1)) infected in BALB/c mouse assessed as median death time at 500 mg/kg, po administered via gavage as single dose at 16 hrs post infection (reference value: 8.5 days); format: functional
[6] = test system: dengue virus type 2; test: Antiviral activity against Dengue virus 2 S221 infected in DENV antibody dependent enhancement AG129 mouse model assessed as reduction in KC-GRO level at 750 mg/kg, po administered via gavage as single dose at 36 hrs post infection measured at 72 hrs post-infection by electrochemiluminescence based method; format: functional, organism-based
[7] = test system: Influenza A virus; test: Antiviral activity against Influenza A virus (A/Texas/36/1991(H1N1)) infected in BALB/c mouse assessed as median death time at 750 mg/kg, po administered via gavage as two doses at 8 hrs and 32 hrs post infection (reference value: 9 days); format: functional
[8] = test system: dengue virus type 2; test: Antiviral activity against Dengue virus 2 S221 infected in DENV antibody dependent enhancement AG129 mouse model assessed as log10 reduction in viremia by measuring foci of BHK21 cells containing DENV E at 750 mg/kg, po administered via gavage as single dose at 36 hrs post infection measured after titration of compound treated infected animal serum with BHK21 cells by TrueBlue staining based focus forming assay; format: functional
[9] = test system: Mus musculus; test: In vivo inhibition of ERGlu2 in BALB/c mouse assessed as increase in mono-glucosylated FOS level in spleen at 20 mg/kg, po administered via gavage starting at 8 hrs post-infection and continuing tid for 5 days and measured at 8 hrs post-final dose by NP-HPLC analysis; format: functional, organism-based
[10] = test system: dengue virus type 2; test: Antiviral activity against Dengue virus 2 S221 infected in DENV antibody dependent enhancement AG129 mouse model assessed as reduction in TNF-alpha level at 750 mg/kg, po administered via gavage as single dose at 36 hrs post infection measured at 72 hrs post-infection by electrochemiluminescence based method; format: functional, organism-based
[11] = test system: Influenza A virus; test: Antiviral activity against Influenza A virus (A/Texas/36/1991(H1N1)) infected in BALB/c mouse assessed as median death time at 250 mg/kg, po administered via gavage as three dosed at 8, 32 and 56 hrs post infection (reference value: 8 days); format: functional
[12] = test system: Influenza A virus; test: Antiviral activity against Influenza A virus (A/Texas/36/1991(H1N1)) infected in BALB/c mouse assessed as median death time at 100 mg/kg, po administered via gavage starting at 8 hrs post-infection and continuing TID for 5 days; format: functional
[13] = Half life in BALB/c mouse at 5 mg/kg, iv or 200 mg/kg, po measured upto 48 hrs by LC-MS/MS analysis; format: ADME, organism-based; details: in vivo
[14] = test system: Influenza A virus; test: Antiviral activity against Influenza A virus (A/Texas/36/1991(H1N1)) infected in BALB/c mouse assessed as animal survival at 500 mg/kg, po administered via gavage as single dose at 16 hrs post infection (reference value: 0%); format: functional
[15] = test system: Influenza A virus; test: Antiviral activity against Influenza A virus (A/Texas/36/1991(H1N1)) infected in BALB/c mouse assessed as animal survival at 250 mg/kg, po administered via gavage as single dose at 8 hrs post infection (reference value: 0%); format: functional
[16] = test system: dengue virus type 2; test: Antiviral activity against Dengue virus 2 S221 infected in DENV antibody dependent enhancement AG129 mouse model assessed as reduction in TNF-lapha level at 750 mg/kg, po administered via gavage as two doses at 36 hrs and 52 hrs post infection measured at 52 hrs post-infection by electrochemiluminescence based method; format: functional, organism-based
[17] = test system: dengue virus type 2; test: Antiviral activity against Dengue virus 2 S221 infected in DENV antibody dependent enhancement AG129 mouse model assessed as reduction in IFN-gamma level at 750 mg/kg, po administered via gavage as single dose at 36 hrs post infection measured at 60 hrs post-infection by electrochemiluminescence based method; format: functional, organism-based
[18] = test system: dengue virus type 2; test: Antiviral activity against Dengue virus 2 S221 infected in DENV antibody dependent enhancement AG129 mouse model assessed as animal survival at 750 mg/kg, po administered via gavage as two doses at 48 and 64 hrs post infection (reference value: 4%); format: functional
[19] = test system: dengue virus type 2; test: Antiviral activity against Dengue virus 2 S221 infected in DENV antibody dependent enhancement AG129 mouse model assessed as reduction in TNF-alpha level at 750 mg/kg, po administered via gavage as two doses at 36 hrs and 52 hrs post infection measured at 72 hrs post-infection by electrochemiluminescence based method; format: functional, organism-based
[20] = test system: Influenza A virus; test: Antiviral activity against Influenza A virus (A/Texas/36/1991(H1N1)) infected in BALB/c mouse assessed as animal survival at 750 mg/kg, po administered via gavage as two doses at 8 and 32 hrs post infection (reference value: 0%); format: functional
[21] = test system: Influenza A virus; test: Antiviral activity against Influenza A virus (A/Texas/36/1991(H1N1)) infected in BALB/c mouse assessed as median death time at 500 mg/kg, po administered via gavage as two doses at 8 hrs and 32 hrs post infection (reference value: 9 days); format: functional
[22] = test system: dengue virus type 2; test: Antiviral activity against Dengue virus 2 S221 infected in DENV antibody dependent enhancement AG129 mouse model assessed as animal survival at 500 mg/kg, po administered via gavage as two doses at 36 and 52 hrs post infection (reference value: 4%); format: functional
[23] = test system: dengue virus type 2; test: Antiviral activity against Dengue virus 2 S221 infected in DENV antibody dependent enhancement AG129 mouse model assessed as animal survival at 375 mg/kg, po administered via gavage as two doses at 24 and 40 hrs post infection (reference value: 4%); format: functional
[24] = test system: Mus musculus; test: In vivo inhibition of ERGlu1 in BALB/c mouse assessed as increase in mono-glucosylated FOS level in lung at 100 to 1000 mg/kg, po administered via gavage at 8 hrs post-infection and measured at 8 hrs post-dose by NP-HPLC analysis; format: functional, organism-based
[25] = test system: Influenza A virus; test: Antiviral activity against Influenza A virus (A/Texas/36/1991(H1N1)) infected in BALB/c mouse assessed as animal survival at 500 mg/kg, po administered via gavage as single dose at 8 hrs post infection (reference value: 0%); format: functional

With COCCCCCCCCCN1C[C@H](O)[C@@H](O)[C@H](O)[C@H]1CO.Cl the survival at 375 mg/kg [1] was 100%, the inhibition [2] was “Active” and the Time [3] was greater than 14 days. The survival at 750 mg/kg [4] was 100%, the Time [5] was 12 days and the Activity [6] was “Active”. For the same molecule, the Time [7] was greater than 14 days, the “log(activity)” value [8] was greater than 1 and the inhibition [9] was “Active”. For the same molecule, the Activity [10] was “Active”, the Time [11] was 9.5 days and the Time [12] was greater than 14 days. For the same molecule, the half-life [13] was 5 h, the survival at 500 mg/kg [14] was 40% and the survival at 250 mg/kg [15] was 30%. For the same molecule, the Activity [16] was “Active”, the Activity [17] was “Active” and the survival at 750 mg/kg [18] was 100%. For the same molecule, the Activity [19] was “Active”, the survival at 750 mg/kg [20] was 100% and the Time [21] was greater than 14 days. For the same molecule, the survival at 500 mg/kg [22] was 86%, the survival at 375 mg/kg [23] was 100% and the inhibition [24] was “Active”. For the same molecule, the survival at 500 mg/kg [25] was 50%.
